Source: ChEMBL document CHEMBL3045542, “A quantitative structure-activity relationship study of herbicidal analogues of alpha-hydroxy-substituted 3-benzylidenepyrrolidene-2,4-diones” (2006)

Experiments:
Format in all cases: functional
[1] = tested on: Echinochloa crus-galli; assay: Herbicidal activity against Echinochloa crus-galli (barnyard grass) assessed as inhibition of plant growth at 10 ug/mL by cup test
[2] = tested on: Echinochloa crus-galli; assay: Herbicidal activity against Echinochloa crus-galli (barnyard grass) assessed as inhibition of plant growth at 750 g/ha applied as pre-emergence treatment; settings: for inhibition at 750 g/ha: Echinochloa crus-galli, pre-emergence
[3] = tested on: Echinochloa crus-galli; assay: Herbicidal activity against Echinochloa crus-galli (barnyard grass) assessed as inhibition of plant growth at 375 g/ha applied as pre-emergence treatment; settings: for inhibition at 375 g/ha: Echinochloa crus-galli, pre-emergence
[4] = tested on: Echinochloa crus-galli; assay: Herbicidal activity against Echinochloa crus-galli (barnyard grass) assessed as inhibition of plant growth at 93.75 g/ha applied as pre-emergence treatment; settings: for inhibition at 93.75 g/ha: Echinochloa crus-galli, pre-emergence
[5] = tested on: Echinochloa crus-galli; assay: Herbicidal activity against Echinochloa crus-galli (barnyard grass) assessed as inhibition of plant growth at 187.5 g/ha applied as pre-emergence treatment; settings: for inhibition at 187.5 g/ha: Echinochloa crus-galli, pre-emergence
[6] = tested on: Digitaria sanguinalis; assay: Herbicidal activity against Digitaria sanguinalis (hairy crabgrass) assessed as inhibition of plant growth at 93.75 g/ha applied as pre-emergence treatment; settings: for inhibition at 93.75 g/ha: Digitaria sanguinalis, pre-emergence
[7] = tested on: Digitaria sanguinalis; assay: Herbicidal activity against Digitaria sanguinalis (hairy crabgrass) assessed as inhibition of plant growth at 750 g/ha applied as pre-emergence treatment; settings: for inhibition at 750 g/ha: Digitaria sanguinalis, pre-emergence
[8] = tested on: Digitaria sanguinalis; assay: Herbicidal activity against Digitaria sanguinalis (hairy crabgrass) assessed as inhibition of plant growth at 187.5 g/ha applied as pre-emergence treatment; settings: for inhibition at 187.5 g/ha: Digitaria sanguinalis, pre-emergence
[9] = tested on: Digitaria sanguinalis; assay: Herbicidal activity against Digitaria sanguinalis (hairy crabgrass) assessed as inhibition of plant growth at 375 g/ha applied as pre-emergence treatment; settings: for inhibition at 375 g/ha: Digitaria sanguinalis, pre-emergence
[10] = tested as the Zn salt or complex

Row | SMILES | inhibition at 10 µg/mL [1] [%] | further results
1 | CCC(C)N1CC(=O)/C(=C(/O)c2cc(C)cc(C)c2)C1=O (stereo not drawn) | 9 | 
2 | CCC(C)N1CC(=O)/C(=C(/O)c2cc(OC)c(OC)cc2OC)C1=O (stereo not drawn) | 18 | 
3 | CC(C)c1ccc(/C(O)=C2\C(=O)CN(C(C)(C)C)C2=O)cc1 | 10 | 
4 | COc1ccc(/C(O)=C2\C(=O)CN(C(C)(C)C)C2=O)cc1 | 10 | inhibition at 750 g/ha [2]: 14%; inhibition at 375 g/ha [3]: 0%; inhibition at 93.75 g/ha [4]: 0%; inhibition at 187.5 g/ha [5]: 0%
5 | CCC(C)N1CC(=O)/C(=C(/O)c2cccc(Oc3ccccc3)c2)C1=O (stereo not drawn) | 58 | 
6 | Cc1cccc(/C(O)=C2\C(=O)CN(C(C)C)C2=O)c1 | 49 | 
7 | CC(C)N1CC(=O)/C(=C(/O)c2ccccc2Cl)C1=O | 51 | 
8 | Cc1cccc(/C(O)=C2\C(=O)CN(Cc3ccccc3)C2=O)c1 | 12 | 
9 | Cc1ccc(/C(O)=C2\C(=O)CN(C(C)(C)C)C2=O)cc1 | 36 | 
10 | CC(C)(C)c1ccc(/C(O)=C2\C(=O)CN(C(C)(C)C)C2=O)cc1 | 4 | 
11 | CCCCCc1ccc(/C(O)=C2\C(=O)CN(C)C2=O)cc1 | 16 | 
12 | COc1ccc(/C(O)=C2\C(=O)CN(Cc3ccccc3)C2=O)cc1 | 14 | 
13 | COc1ccc(/C(O)=C2\C(=O)CN(C3CC3)C2=O)cc1 | 62 | 
14 | CCCc1ccc(/C(O)=C2\C(=O)CN(C(C)C)C2=O)cc1 | 27 | 
15 | Cc1cccc(/C(O)=C2\C(=O)CN(C)C2=O)c1 | 25 | 
16 | CC(C)N1CC(=O)/C(=C(/O)c2ccc(C(C)(C)C)cc2)C1=O | 28 | 
17 | COc1cc(OC(C)C)ccc1/C(O)=C1\C(=O)CN(C(C)C)C1=O | 57 | 
18 | CCOc1ccc(/C(O)=C2\C(=O)CN(C(C)CC)C2=O)c(OC)c1 (stereo not drawn) | 68 | 
19 | CCC(C)N1CC(=O)/C(=C(/O)c2ccc(OC(C)C)cc2OC)C1=O (stereo not drawn) | 33 | 
20 | O=C1CN(C2CC2)C(=O)/C1=C(\O)c1cccc(Oc2ccccc2)c1 | 58 | 
21 | Cc1cccc(/C(O)=C2\C(=O)CN(C(C)(C)C)C2=O)c1 | 5 | 
22 | CCCCOc1ccc(/C(O)=C2\C(=O)CN(C(C)C)C2=O)cc1 | 21 | 
23 | CCC(C)N1CC(=O)/C(=C(/O)c2ccc(OC(C)C)cc2)C1=O (stereo not drawn) | 46 | 

Row | SMILES | inhibition at 10 µg/mL [1] [%] | further results
24 | CCCCOc1ccc(/C(O)=C2\C(=O)CN(C(C)CC)C2=O)cc1 (stereo not drawn) | 28 | 
25 | CC(C)N1CC(=O)/C(=C(/O)c2cccc(Oc3ccccc3)c2)C1=O | 57 | 
26 | CCCc1ccc(/C(O)=C2\C(=O)CN(C(C)CC)C2=O)cc1 (stereo not drawn) | 18 | 
27 | COc1ccccc1/C(O)=C1\C(=O)CN(C(C)C)C1=O | 77 | inhibition at 750 g/ha [2]: 73%; inhibition at 375 g/ha [3]: 28%; inhibition at 93.75 g/ha [4]: 0%; inhibition at 187.5 g/ha [5]: 0%
28 | O=C1CN(Cc2ccccc2)C(=O)/C1=C(\O)c1ccccc1 | 2 | inhibition at 750 g/ha [2]: 0%; inhibition at 375 g/ha [3]: 0%; inhibition at 93.75 g/ha [4]: 0%; inhibition at 187.5 g/ha [5]: 0%
29 | Cc1ccccc1/C(O)=C1\C(=O)CN(Cc2ccccc2)C1=O | 15 | 
30 | C=CCOc1ccc(/C(O)=C2\C(=O)CN(C(C)C)C2=O)c(OC)c1 | 77 | 
31 | COc1cc(OC(C)C)ccc1/C(O)=C1\C(=O)C(C)N(C(C)C)C1=O (stereo not drawn) | 9 | 
32 | CCCCOc1cccc(/C(O)=C2\C(=O)CN(C(C)C)C2=O)c1 | 47 | 
33 | CC(C)N1CC(=O)/C(=C(/O)c2ccc(OCc3ccccc3)cc2)C1=O | 39 | 
34 | COc1ccc(/C([O-])=C2\C(=O)CN(C(C)C)C2=O)c(OC)c1.COc1ccc(/C([O-])=C2\C(=O)CN(C(C)C)C2=O)c(OC)c1.[Zn+2] |  | inhibition at 750 g/ha [2, 10]: 100%; inhibition at 375 g/ha [3, 10]: 100%; inhibition at 93.75 g/ha [6, 10]: 15%; inhibition (INH) [4]: 72%; inhibition (INH) [5]: 85%; inhibition at 750 g/ha [7, 10]: 100%; inhibition at 187.5 g/ha [8, 10]: 82%; inhibition at 375 g/ha [9, 10]: 100%
35 | CCOc1ccc(C(=O)C2=C(O)N(C(C)C)CCC2=O)cc1 | 15 | 
36 | COc1ccc(/C(O)=C2\C(=O)CN(C3CC3)C2=O)c(OC)c1 | 78 | 
37 | CN1CC(=O)/C(=C(/O)c2cccc(Oc3ccccc3)c2)C1=O | 53 | 
38 | C=CCOc1ccc(/C(O)=C2\C(=O)C(C)N(C(C)C)C2=O)c(OC)c1 (stereo not drawn) | 44 | 
39 | Cc1ccc(/C(O)=C2\C(=O)CN(Cc3ccccc3)C2=O)cc1 | 8 | 
40 | COc1ccccc1/C(O)=C1\C(=O)CN(Cc2ccccc2)C1=O | 14 | 
41 | CCCCOc1cccc(/C(O)=C2\C(=O)CN(C(C)CC)C2=O)c1 (stereo not drawn) | 32 | 
42 | COc1ccc(/C([O-])=C2\C(=O)CN(C(C)C)C2=O)c(OC)c1.[Na+] |  | inhibition (INH) [2]: 100%; inhibition (INH) [3]: 100%; inhibition (INH) [6]: 10%; inhibition (INH) [4]: 73%; inhibition (INH) [5]: 100%; inhibition (INH) [7]: 100%; inhibition (INH) [8]: 90%; inhibition (INH) [9]: 100%
43 | COc1ccc(C(=O)C2=C(O)N(C(C)C)CCC2=O)cc1 | 0 | 
44 | CCOc1ccc(/C(O)=C2\C(=O)CN(C(C)C)C2=O)c(OC)c1 | 69 | 
45 | CCC(C)N1CC(=O)/C(=C(/O)c2ccc(OC)cc2)C1=O (stereo not drawn) | 64 | 
46 | CCOc1ccc(/C([O-])=C2\C(=O)CN(C(C)C)C2=O)cc1.CCOc1ccc(/C([O-])=C2\C(=O)CN(C(C)C)C2=O)cc1.[Zn+2] |  | inhibition at 750 g/ha [2, 10]: 100%; inhibition at 375 g/ha [3, 10]: 100%; inhibition at 93.75 g/ha [6, 10]: 8%; inhibition (INH) [4]: 57%; inhibition at 187.5 g/ha [5, 10]: 96%; inhibition at 750 g/ha [7, 10]: 100%; inhibition at 187.5 g/ha [8, 10]: 64%; inhibition (INH) [9]: 100%

Row | SMILES | inhibition at 10 µg/mL [1] [%] | further results
47 | Cc1ccc(/C(O)=C2\C(=O)CN(C(C)C)C2=O)c(C)c1 | 74 | 
48 | COc1ccc(/C(O)=C2\C(=O)C(C)N(C(C)C)C2=O)c(OC)c1 (stereo not drawn) | 25 | 
49 | CC(C)Oc1ccc(/C(O)=C2\C(=O)CN(C(C)C)C2=O)cc1 | 79 | 
50 | CCOc1ccc(/C(O)=C2\C(=O)C(C)N(C(C)C)C2=O)c(OC)c1 (stereo not drawn) | 32 | 
51 | Cc1ccccc1/C(O)=C1\C(=O)CN(C(C)(C)C)C1=O | 64 | 
52 | CCOc1ccc(/C(O)=C2\C(=O)CN(C(C)C)C2=O)c(OCC)c1 | 26 | 
53 | CCOc1ccc(/C(O)=C2\C(=O)CN(C3CC3)C2=O)cc1 | 78 | 
54 | COc1ccc(/C(O)=C2\C(=O)CN(C(C)C)C2=O)cc1 | 80 | 
55 | CCCCCc1ccc(/C(O)=C2\C(=O)CN(C(C)C)C2=O)cc1 | 6 | 
56 | COc1ccc(C(=O)C2=C(O)N(C(C)C)CCC2=O)c(OC)c1 | 6 | 
57 | Cc1cc(C)cc(/C(O)=C2\C(=O)CN(C(C)C)C2=O)c1 | 22 | 
58 | Cc1ccccc1/C(O)=C1\C(=O)CN(C(C)C)C1=O | 77 | 
59 | CC(C)N1CC(=O)/C(=C(/O)c2ccc(Cl)cc2)C1=O | 25 | 
60 | CCCOc1ccc(/C(O)=C2\C(=O)CN(C(C)C)C2=O)cc1 | 73 | 
61 | CCCCCc1ccc(/C(O)=C2\C(=O)CN(C3CC3)C2=O)cc1 | 5 | 
62 | COc1ccccc1/C(O)=C1\C(=O)CN(C(C)(C)C)C1=O | 75 | 
63 | COc1ccc(/C(O)=C2\C(=O)C(C)N(C(C)C)C2=O)cc1 (stereo not drawn) | 4 | 
64 | CS(=O)(=O)c1ccc(C(=O)C2C(=O)CCCC2=O)c(Cl)c1 [SULCOTRIONE] |  | inhibition at 750 g/ha [2]: 100%; inhibition at 375 g/ha [3]: 100%; inhibition at 93.75 g/ha [6]: 100%; inhibition at 93.75 g/ha [4]: 70%; inhibition at 187.5 g/ha [5]: 93%; inhibition at 750 g/ha [7]: 100%; inhibition at 187.5 g/ha [8]: 100%; inhibition at 375 g/ha [9]: 100%
65 | CC(C)Oc1cccc(/C(O)=C2\C(=O)CN(C(C)C)C2=O)c1 | 9 | 
66 | Cc1ccc(/C(O)=C2\C(=O)CN(C(C)C)C2=O)cc1 | 77 | 
67 | COc1ccc(C/C(O)=C2/C(=O)CN(C(C)C)C2=O)cc1 | 5 | 
68 | CCC(C)N1CC(=O)/C(=C(/O)c2ccc(OC)c(OC)c2)C1=O (stereo not drawn) | 9 | 
